Data: patent US8815928B2, “Hepatitis C virus inhibitors” (priority 2009, dated 2014)

Tested on: HCV 1b genotype replicon
Test: HCV genotype-1b replicon assay (qRT-PCR or luciferase)
Format: cell-based
Details: Hepatitis C virus, read-out: Genotype-1b replicon EC50 Range
Text: HCV replicon cell lines (kindly provided by R. Bartenschlager) isolated from colonies as described by Lohman et. al. (Lohman et al. (1999) Science 285: 110-113, expressly incorporated by reference in its entirety) and used for all experiments. The HCV replicon has the nucleic acid sequence set forth in EMBL Accession No.: AJ242651, the coding sequence of which is from nucleotides 1801 to 8406.
The coding sequence of the published HCV replicon was synthesized and subsequently assembled in a modified plasmid pBR322 (Promega, Madison, Wis.) using standard molecular biology techniques. […]
EC50 values of single agent compounds and combinations were determined by HCV RNA detection using quantitative RT-PCR, according to the manufacturer's instructions, with a TAQMAN® One-Step RT-PCR Master Mix Reagents Kit (Cat# AB 4309169, Applied Biosystems) on an ABI Model 7500 thermocycler. The TaqMan primers used for detecting and quantifying HCV RNA were obtained from Integrated DNA Technologies. HCV RNA was normalized to GAPDH RNA levels in drug-treated cells, which was detected and quantified using the Human GAPDH Endogenous Control Mix (Applied Biosystems, AB 4310884E). […] Chemical agent cytotoxicity was evaluated using an MTS assay according to the manufacturer's directions (Promega). […]

Work on `COC(=O)N[C@H](C(=O)N1CCC[C@H]1C(=O)Nc1ncc(-c2ccc3cc(-c4cnc([C@@H]5CCCN5C(=O)[C@@H](NC(=O)OC)C(C)C)[nH]4)ccc3c2)cn1)C(C)C` [Compound 348] yielded an EC50 of 1 to 10 nM.
